In brackets after ≈: the same amount, converted by molar mass. Where two headings read alike, the source gives them in different places.
How the values were obtained:
[1] = test system: M. tuberculosis (Mtb) (H37Rv, ATCC 27294); assay: microbe, parasite or virus in culture; assay type: cell-based; details: Mycobacterium tuberculosis
[2] = Cytotoxicity against THP1 macrophage cell lines; assay type: cell-based; details: human
Mtb H37Rv = assay: In vivo mouse efficacy, established murine TB model; parameters: species or system Balb/c mice; details: for Efficacy compared with PA-824, in words: significance at P<0.05
Procedure: In vivo mouse efficacy studies were determined after intranasal infection of Balb/c mice with 10^3 cfu Mtb H37Rv. Treatment was initiated 4 weeks after infection. Compounds were orally administered in CM-2 formulation for 4 weeks daily. Bacterial loads were determined at 2 and 4 weeks post treatment. Statistical analysis was done by a one-way analysis of variance, followed by a multiple comparison analysis of variance by a one-way Tukey test (GraphPad Prism, version 5.02, San Diago, California USA, www.graphpad.com). Differences were considered statistically significant at the 95% level of confidence.

[3] = female, CD-1, mouse, in vivo, po
in vivo [4] = details: female, CD-1, mouse, po
in vivo [5] = details: female, CD-1, mouse, iv; for clearance: i.v. CL
in vivo [6] = details: female, CD-1, mouse, po; remark: listed apart in the source
physchem [7] = details: pH 6.8, aqueous buffer, thermodynamic from solid
physchem [8] = assay: physchem
in vitro [9] = details: human, Caco-2
in vitro [10] = details: mouse, plasma
[11] = In vivo lung PK after oral dosing; details: female, CD-1, mouse
[12] = In vivo plasma PK after intravenous dosing; details: female, CD-1, mouse, plasma, iv, T1/2 (i.v), mice
[13] = In vivo plasma PK after oral dosing in CM-2 formulation; details: female, CD-1, mouse, plasma, po
[14] = 100 mg/kg oral daily for 4 weeks, 5 animals
[15] = 100 mg/kg oral daily for 4 weeks
[16] = Mycobacterium tuberculosis, H37RV, po, 672 h, 100 mg/kg oral daily for 4 weeks, 5 animals, read-out: Mean log lung CFU reduction ± SEM compared to untreated controls
[17] = 10 mg/kg, i.v. dosing at 10 mg/kg
[18] = 25 mg/kg, Lung to Plasma ratio AUC24
[19] = 25 mg/kg, Lung to Plasma ratio Cmax
[20] = 5 mg/kg, i.v. dosing at 5 mg/kg

Question: Which results are given for O=C(CO[C@@H]1COc2nc([N+](=O)[O-])cn2C1)N1CCN(c2ccc(OC(F)(F)F)cc2)CC1 [NI-622]?
Answer: MIC99 [1]: 0.18 µg/mL (≈ 0.382 µM); CC50 [2]: > 10 µg/mL; Mean log lung CFU ± SEM (Mtb H37Rv; 25 mg/kg oral daily for 4 weeks, 5 animals): 5.77±0.08 log CFU; Efficacy compared with PA-824, in words (Mtb H37Rv; 25 mg/kg oral daily for 4 weeks): significantly (P<0.05) less efficacious than PA-824; Mean log lung CFU ± SEM (Mtb H37Rv; [14]): 5.85±0.11 log CFU; Efficacy compared with PA-824, in words (Mtb H37Rv; [15]): significantly (P<0.05) less efficacious than PA-824; Dose dependence of efficacy, in words (Mtb H37Rv; 25 versus 100 mg/kg oral daily for 4 weeks): no dose-dependent increase in bactericidal activity; log reduction at 25 mg/kg (Mtb H37Rv; Mycobacterium tuberculosis, H37RV, po, 672 h, 25 mg/kg oral daily for 4 weeks, 5 animals, read-out: Mean log lung CFU reduction ± SEM compared to untreated controls): 0.48 to 0.89; log reduction at 100 mg/kg (Mtb H37Rv; [16]): 0.81 ± 0.11; PAMPA %FA: 31%; PAMPA Log Pe: –5.3 cm/sec; Lung AUC24 ([3]; 50 mg/kg): 71.1 µg·h/g; Lung Cmax ([3]; 50 mg/kg): 10.2 µg/g; AUC (in vivo [4]; 50 mg/kg): 108000 ng·h/mL; Cmax (in vivo [4]; 50 mg/kg): 14800 ng/mL; bioavailability (in vivo [4]; 50 mg/kg): 100%; Vd (in vivo [5]; 10 mg/kg): 1.8 L/kg; clearance (in vivo [5]; 10 mg/kg): 14.7 mL/min/kg; Kp (in vivo [6]; 50 mg/kg, Lung to Plasma ratio AUC24): 0.7; Kp (in vivo [6]; 50 mg/kg, Lung to Plasma ratio Cmax): 0.7; solubility (physchem [7]): 28.2 µg/mL (≈ 59.8 µM); logP (physchem [8]): 2.9; Papp A→B (in vitro [9]): 9.5 ×10⁻⁶ cm/s; Papp B→A (in vitro [9]): 12.4 ×10⁻⁶ cm/s; efflux ratio (in vitro [9]): 1.3; fraction unbound (in vitro [10]): 0.03; half-life ([11]; 50 mg/kg): 1.8 h; half-life [12, 17]: 1.8 h; half-life ([13]; 50 mg/kg): 2.1 h

Question: With CC[C@@H]1Oc2nc([N+](=O)[O-])cn2C[C@@H]1NCc1ccc(OC(F)(F)F)c(F)c1 [NI-176] as the molecule, how does the MIC99 [1] read?
Answer: Its MIC99 is 0.03 µg/mL (≈ 0.0742 µM).

Question: What about the CC50 [2] of the same molecule?
Answer: The CC50 was greater than 10 µg/mL.

Question: What about the “PAMPA %FA” value of the same molecule?
Answer: The value was 99%.

Question: And the “PAMPA Log Pe” value?
Answer: The value was “–3.7 cm/sec”.

Question: And the “Lung AUC24” value ([3]; 25 mg/kg)?
Answer: Its value is 30.3 µg·h/g.

Question: And the “Lung Cmax” value ([3]; 25 mg/kg)?
Answer: Its value is 4.8 µg/g.

Question: And the AUC (in vivo [4]; 25 mg/kg)?
Answer: The AUC was 13700 ng·h/mL.

Question: What about the Cmax (in vivo [4]; 25 mg/kg) of the same molecule?
Answer: Its Cmax is 2200 ng/mL.

Question: What about the bioavailability (in vivo [4]; 25 mg/kg) of the same molecule?
Answer: Its bioavailability is 86%.

Question: And the Vd (in vivo [5]; 5 mg/kg)?
Answer: The Vd was 1.8 L/kg.

Question: And the clearance (in vivo [5]; 5 mg/kg)?
Answer: The clearance was 22.2 mL/min/kg.

Question: What about the Kp (in vivo [6]; [18]) of the same molecule?
Answer: The Kp was 2.2.

Question: And the Kp (in vivo [6]; [19])?
Answer: The Kp was 2.2.

Question: And the solubility (physchem [7])?
Answer: Its solubility is 8 µg/mL (≈ 19.8 µM).

Question: What about the logP (physchem [8]) of the same molecule?
Answer: The logP was 3.5.

Question: And the half-life ([11]; 25 mg/kg)?
Answer: Its half-life is 4.3 h.

Question: And the half-life [12, 20]?
Answer: The half-life was 1 h.

Question: What about the half-life ([13]; 25 mg/kg) of the same molecule?
Answer: The half-life was 4.3 h.

Question: What does the source list for CC[C@@H]1Oc2nc([N+](=O)[O-])cn2C[C@@H]1OCc1ccc(OC(F)(F)F)cc1 [NI-145]?
Answer: MIC99 [1]: 0.06 µg/mL (≈ 0.155 µM); CC50 [2]: > 10 µg/mL; PAMPA %FA: 99%; PAMPA Log Pe: –3.85 cm/sec; Lung AUC24 ([3]; 25 mg/kg): 34.6 µg·h/g; Lung Cmax ([3]; 25 mg/kg): 4.2 µg/g; AUC (in vivo [4]; 25 mg/kg): 16200 ng·h/mL; Cmax (in vivo [4]; 25 mg/kg): 1800 ng/mL; Tmax (in vivo [4]; 25 mg/kg): 2 h; bioavailability (in vivo [4]; 25 mg/kg): 68%; Vd (in vivo [5]; 5 mg/kg): 1.7 L/kg; clearance (in vivo [5]; 5 mg/kg): 17 mL/min/kg; Tmax (in vivo [6]; 25 mg/kg): 2 h; Kp (in vivo [6]; [18]): 2.1; Kp (in vivo [6]; [19]): 2.3; solubility (physchem [7]): < 2 µg/mL; logP (physchem [8]): 3.85; half-life ([11]; 25 mg/kg): 4.1 h; half-life [12, 20]: 2 h; half-life ([13]; 25 mg/kg): 4.2 h

Question: Which results are given for CC[C@@H]1Oc2nc([N+](=O)[O-])cn2C[C@@H]1NCc1ccc(OC(F)(F)F)cc1 [NI-269]?
Answer: MIC99 [1]: 0.03 µg/mL (≈ 0.0777 µM); CC50 [2]: > 10 µg/mL; PAMPA %FA: 99%; PAMPA Log Pe: –3.7 cm/sec; Lung AUC24 ([3]; 25 mg/kg): 27.5 µg·h/g; Lung Cmax ([3]; 25 mg/kg): 5.4 µg/g; AUC (in vivo [4]; 25 mg/kg): 16000 ng·h/mL; Cmax (in vivo [4]; 25 mg/kg): 2800 ng/mL; Tmax (in vivo [4]; 25 mg/kg): 0.3 h; bioavailability (in vivo [4]; 25 mg/kg): 88%; Vd (in vivo [5]; 5 mg/kg): 2.6 L/kg; clearance (in vivo [5]; 5 mg/kg): 19.7 mL/min/kg; Tmax (in vivo [6]; 25 mg/kg): 0.3 h; Kp (in vivo [6]; [18]): 1.7; Kp (in vivo [6]; [19]): 1.9; solubility (physchem [7]): 12 µg/mL (≈ 31.1 µM); logP (physchem [8]): 3.15; half-life ([11]; 25 mg/kg): 2.7 h; half-life [12, 20]: 2.1 h; half-life ([13]; 25 mg/kg): 3.8 h

Question: For O=[N+]([O-])c1cn2c(n1)OC[C@@H](NCc1ccc(OC(F)(F)F)cc1)C2 [Amino-824, ((s)-2-nitro-6,7-dihydro-5H-imidazo[2,1-b][1,3]oxazin-6-yl)-(4-trifluoromethoxybenzyl)amine], which MIC99 [1] is on record?
Answer: Its MIC99 is 0.14 µg/mL (≈ 0.391 µM).

Question: What about the CC50 [2] of the same molecule?
Answer: The CC50 was greater than 10 µg/mL.

Question: And the “Mean log lung CFU ± SEM” value (Mtb H37Rv; [14])?
Answer: Its value is 5.14±0.08 log CFU.

Question: And the “Efficacy compared with PA-824, in words” value (Mtb H37Rv; [15])?
Answer: Its value is “significantly (P<0.05) less efficacious than PA-824”.

Question: What about the log reduction at 100 mg/kg (Mtb H37Rv; [16]) of the same molecule?
Answer: The log reduction at 100 mg/kg was 1.08 ± 0.08.

Question: And the “PAMPA %FA” value?
Answer: Its value is 91%.

Question: And the “PAMPA Log Pe” value?
Answer: Its value is “–4.8 cm/sec”.

Question: What about the “Lung AUC24” value ([3]; 10 mg/kg) of the same molecule?
Answer: Its value is 4.5 µg·h/g.

Question: And the “Lung Cmax” value ([3]; 10 mg/kg)?
Answer: Its value is 1.4 µg/g.

Question: What about the AUC (in vivo [4]; 10 mg/kg) of the same molecule?
Answer: Its AUC is 6000 ng·h/mL.

Question: What about the Cmax (in vivo [4]; 10 mg/kg) of the same molecule?
Answer: The Cmax was 1700 ng/mL.

Question: And the bioavailability (in vivo [4]; 10 mg/kg)?
Answer: The bioavailability was 74%.

Question: And the Vd (in vivo [5]; 10 mg/kg)?
Answer: Its Vd is 2.3 L/kg.

Question: And the clearance (in vivo [5]; 10 mg/kg)?
Answer: Its clearance is 20.5 mL/min/kg.

Question: What about the Kp (in vivo [6]; 10 mg/kg, Lung to Plasma ratio AUC24) of the same molecule?
Answer: The Kp was 0.8.

Question: What about the Kp (in vivo [6]; 10 mg/kg, Lung to Plasma ratio Cmax) of the same molecule?
Answer: Its Kp is 0.8.

Question: What about the solubility (physchem [7]) of the same molecule?
Answer: Its solubility is 127 µg/mL (≈ 354 µM).

Question: What about the logP (physchem [8]) of the same molecule?
Answer: The logP was 2.5.

Question: What about the Papp A→B (in vitro [9]) of the same molecule?
Answer: The Papp A→B was 35.4 ×10⁻⁶ cm/s.

Question: And the Papp B→A (in vitro [9])?
Answer: Its Papp B→A is 21 ×10⁻⁶ cm/s.

Question: What about the efflux ratio (in vitro [9]) of the same molecule?
Answer: Its efflux ratio is 0.6.

Question: What about the fraction unbound (in vitro [10]) of the same molecule?
Answer: Its fraction unbound is 0.2.

Question: And the half-life ([11]; 10 mg/kg)?
Answer: The half-life was 1.3 h.

Question: What about the half-life [12, 17] of the same molecule?
Answer: Its half-life is 2 h.

Question: And the half-life ([13]; 10 mg/kg)?
Answer: Its half-life is 2 h.
